Laboratory results as given in article PMC3157365 (Journal of medicinal chemistry, 2008).

What was measured:
hD2LR = hD2LR (Homo sapiens, UniProt P14416); assay: Displacement of 125I-IABN in HEK 293 cells transfected with hD2LR; format: binding; details: for decrease in binding at D2R compared to the piperidinol (unbridged) analogue: comparator from ref 28
hD3R = hD3R (Homo sapiens, UniProt P35462); assay: Displacement of 125I-IABN in HEK 293 cells transfected with hD3R; format: binding; details: vs 1
D2R = D2R (Homo sapiens, UniProt P14416); assay: Functional assay at D2R; format: cell-based
D3R = D3R (Homo sapiens, UniProt P35462); assay: Functional assay at D3R; format: cell-based
D3R, sequence (P35462 whole entry): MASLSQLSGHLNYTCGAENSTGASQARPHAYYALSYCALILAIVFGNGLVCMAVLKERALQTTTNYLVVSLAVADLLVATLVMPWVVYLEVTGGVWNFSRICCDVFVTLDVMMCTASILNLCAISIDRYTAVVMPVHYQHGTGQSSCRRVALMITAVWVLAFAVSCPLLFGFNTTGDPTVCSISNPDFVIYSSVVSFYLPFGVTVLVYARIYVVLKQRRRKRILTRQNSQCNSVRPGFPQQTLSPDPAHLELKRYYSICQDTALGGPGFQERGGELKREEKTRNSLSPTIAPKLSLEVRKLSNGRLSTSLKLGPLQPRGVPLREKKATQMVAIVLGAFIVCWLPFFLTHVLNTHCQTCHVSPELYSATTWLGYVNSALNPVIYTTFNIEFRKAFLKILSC

hD2LR, sequence (P14416 whole entry): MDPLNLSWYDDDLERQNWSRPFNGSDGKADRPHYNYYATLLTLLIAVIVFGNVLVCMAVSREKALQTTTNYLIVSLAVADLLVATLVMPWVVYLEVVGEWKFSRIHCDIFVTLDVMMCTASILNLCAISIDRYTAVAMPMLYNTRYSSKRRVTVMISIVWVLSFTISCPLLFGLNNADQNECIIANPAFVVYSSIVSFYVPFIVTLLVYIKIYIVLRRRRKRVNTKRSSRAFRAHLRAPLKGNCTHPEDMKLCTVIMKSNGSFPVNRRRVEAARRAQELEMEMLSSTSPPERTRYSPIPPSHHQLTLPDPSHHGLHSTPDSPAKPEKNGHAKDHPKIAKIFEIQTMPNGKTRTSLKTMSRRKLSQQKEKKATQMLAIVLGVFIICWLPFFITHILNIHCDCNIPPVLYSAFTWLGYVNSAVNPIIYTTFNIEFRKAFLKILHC
D2R, sequence (P14416 whole entry): as above
hD3R, sequence (P35462 whole entry): as the sequence (P35462 whole entry) above

| SMILES | decrease in binding at D2R compared to the piperidinol (unbridged) analogue (hD2LR) [fold] | functional efficacy at D2R (D2R) | functional efficacy at D3R (D3R) | other results |
| --- | --- | --- | --- | --- |
| CSc1ccc([C@]2(O)C[C@H]3CC[C@@H](C2)N3Cc2c[nH]c3ccccc23)cc1 [Compound 37, endo-8-(1H-Indol-3-ylmethyl)-3-(4-(methylthio)phenyl)-8-azabicyclo[3.2.1]octan-3-ol] | 24 |  |  |  |
| O[C@]1(c2ccc(Cl)cc2)C[C@H]2CC[C@@H](C1)N2Cc1c[nH]c2ccccc12 [Compound 31, endo-8-(1H-Indol-3-ylmethyl)-3-(4-chlorophenyl)-8-azabicyclo-[3.2.1]octan-3-ol] |  | antagonists | antagonists | decrease in affinity at D2R compared to 1 (hD2LR; vs 1): 3 fold; increase in D3R binding affinity compared to the parent ligand 1 (hD3R): 10 fold |
| COc1ccc2[nH]cc(CN3[C@@H]4CC[C@H]3C[C@](O)(c3ccc(SC)cc3)C4)c2c1 [Compound 40, endo-8-(5-Methoxy-1H-indol-3-ylmethyl)-3-(4-methylthiophenyl)-8-azabicyclo[3.2.1]octan-3-ol] | 100 |  |  |  |
| O[C@@]1(c2ccc(Cl)cc2)C[C@H]2CC[C@@H](C1)N2Cc1csc2ccccc12 [Compound 41, endo-8-(Benzothien-3-ylmethyl)-3-(4-chlorophenyl)-8-azabicyclo[3.2.1]octan-3-ol] |  | antagonists | antagonists |  |
| O[C@@]1(c2ccc(Cl)c(Cl)c2)C[C@H]2CC[C@@H](C1)N2Cc1c[nH]c2ccccc12 [Compound 32, endo-8-(1H-Indol-3-ylmethyl)-3-(3,4-dichlorophenyl)-8-azabicyclo[3.2.1]octan-3-ol] |  |  | antagonists |  |
| OC1(c2ccc(Cl)c(Cl)c2)CCN(Cc2c[nH]c3ccccc23)CC1 [Compound 2, reference compound] |  |  |  | selectivity for the D2 receptor subtype (hD2LR; D2R over D3R): more than 10 fold |
